Earlier results in US11364187B2, “Compositions and methods for preventing and reversing aspects of aging” (CENTERS FOR AGE CONTROL, INC., priority 2017, dated 2022).

Experiments:
[1] = 60 year old human equivalent mice, one week of injections
SIRT1 enzyme = target: T1, SIRT1 enzyme (Homo sapiens, UniProt Q96EB6); conditions: in vitro
T1 sequence (Q96EB6 1-747): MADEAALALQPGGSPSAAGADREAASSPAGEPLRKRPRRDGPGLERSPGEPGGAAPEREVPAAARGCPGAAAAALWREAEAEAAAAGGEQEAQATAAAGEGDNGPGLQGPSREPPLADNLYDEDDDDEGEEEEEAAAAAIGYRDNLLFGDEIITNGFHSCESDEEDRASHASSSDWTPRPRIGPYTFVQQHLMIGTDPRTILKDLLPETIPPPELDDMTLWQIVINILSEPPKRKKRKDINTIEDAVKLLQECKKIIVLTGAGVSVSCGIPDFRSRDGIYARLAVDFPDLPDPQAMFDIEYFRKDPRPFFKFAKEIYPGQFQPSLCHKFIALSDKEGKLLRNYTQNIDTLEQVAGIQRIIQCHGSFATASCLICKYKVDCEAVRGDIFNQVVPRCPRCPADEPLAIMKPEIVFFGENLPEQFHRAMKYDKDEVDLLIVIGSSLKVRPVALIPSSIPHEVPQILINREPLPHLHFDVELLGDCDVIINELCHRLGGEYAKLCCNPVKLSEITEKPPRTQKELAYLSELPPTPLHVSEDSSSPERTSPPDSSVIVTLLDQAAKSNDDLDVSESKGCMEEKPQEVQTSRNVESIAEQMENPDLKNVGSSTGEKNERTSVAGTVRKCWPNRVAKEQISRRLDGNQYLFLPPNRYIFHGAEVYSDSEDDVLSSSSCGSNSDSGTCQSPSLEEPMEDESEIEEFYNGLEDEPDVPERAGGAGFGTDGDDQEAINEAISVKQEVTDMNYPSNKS

[2] = topically applied
[3] = human body

For `NC(=O)c1ccc[n+]([C@@H]2O[C@H](COP(=O)([O-])O)[C@@H](O)[C@H]2O)c1` [NMN, nicotinamide mono nucleotide], the “muscle tissue age appearance” value [1] is given as “muscle tissue resembling 20 years old”.

In the case of `NC(=O)c1cccnc1` [nicotinamide], the “effect on SIRT1 enzyme” value (SIRT1 enzyme) is given as “direct inhibitor of SIRT1 enzyme in vitro” and the “wrinkles and dark spots on skin” value [2] is given as “reduces the wrinkles and dark spots on skin”.

For `COc1cc(/C=C/c2ccc(O)cc2)cc(OC)c1` [Pterostilbene], the absorption [3] is listed as “about 80%” and the “absorption relative to resveratrol” value [3] is listed as “about four times more effectively”.
